In article PMC12323621, “Exploring the antimicrobial activity of pantothenamides against uropathogenic Escherichia coli” (Microbiology Spectrum, 2025):
Like-named read-outs stand apart in the source and are kept apart here.

Columns and labels:
UPEC strain CFT073 [1] = assay: Antimicrobial susceptibility assay, UPEC grown in MOPS-glycerol; format: cell-based, Escherichia coli; details: for MIC: Escherichia coli; for MIC / MIC MOPS-glycerol: UPEC CFT073 grown in MOPS-glycerol, 24 h, ± standard error; for fold increase in MIC (less potent) compared with 1 / activity against UPEC, highest concentration without activity: MOPS-glycerol
Excerpt: (§1) Unless otherwise noted, all reagents were obtained from commercial sources. BAP, 1, and N5-Pan analogs were synthesized according to previously reported procedures ([31], [53]). Urine was self-collected from adult males and females (not menstruating) between 24 and 57 years old (recruitment was open to donors 18–65 years old), who had not used anti-infectives or cranberry products for at least 7 days prior to collection. The collection protocol was approved by the Johns Hopkins University Institutional Review Boards under IRB study NA_00085130. Informed, written consent was obtained from all participants prior to collection. Urine was collected from at least 7 participants over 14 days, stored at 4°C upon collection, and then pooled, filter-sterilized, and frozen at −20°C. Urine Batch A included five male and three female donors with an average age of 33 years (range: 24–57). Urine Batch B included four male and five female donors with an average age of 26 years (range: 24–43). Samples from two donors (donations made at least 30 days apart) were included in both Batch A and Batch B. Urine Batch C included four male and three female donors with an average age of 27 years (range: 24–36). Urine Batch D included four male and three female donors with an average age of 27 years (range: 25–35). Solid urine agar plates were prepared by supplementing cooled 1.5% (wt/vol) agar with filter-sterilized urine in a 4:1 ratio. Liquid MOPS-glycerol was prepared by adding 10 × 3-(N-morpholino)propanesulfonic acid (MOPS) Buffer (Teknova) to water to a final 1× concentration, 1.32 mM K2HPO4, and 0.4% (vol/vol) glycerol and then filter-sterilizing. Unless otherwise noted, all media were supplemented with freshly prepared 20 µM FeSO4. OD600 analyses were performed on Mettler-Toledo UV5Bio UV/Visible spectrophotometer (Columbus, Ohio, USA). For antimicrobial studies, uropathogenic E. coli strain CFT073 (ATCC: BAA-2503) was provided by Kevin Schwartz from the lab of Rodney Welch. All manipulation of UPEC was conducted in a certified biosafety level 2 (BSL-2) laboratory while using BSL-2-associated safety procedures. Antimicrobial data were collected on a Biotek Epoch 2 microplate reader or a Biotek Synergy Neo 2 microplate reader. For metabolic stability studies, losartan potassium (PHR1602), used as an internal standard, was bought from Millipore Sigma (Burlington, MA). Methanol (A456-4) and acetonitrile (A955-4) were purchased from Fisher Chemical (Pittsburgh, PA). Water (9831-03) was purchased from JT Baker (Philipsburg, NJ). Dimethyl sulfoxide (DMSO)(154938-500mL) was purchased from Sigma Aldrich (St. Louis, MO). Mouse plasma (WT) was purchased from Innovative Research (Novi, MI). Mouse liver microsomes (M1000) were purchased from XenoTech LLC (Kansas City, KS).
(§2) All antimicrobial susceptibility assays were conducted as previously described using an aseptic technique with some modification ([7]). Briefly, 3–5 isolated colonies of CFT073 on LB agar or pooled urine agar were inoculated into 3 mL of liquid MOPS-glycerol medium or pooled urine, respectively, and grown overnight with shaking at 37°C. Saturated cultures were diluted 1:50 in fresh medium and grown to an OD600 of 0.4. These exponential phase cultures were then diluted 1:1,000 into fresh medium to yield the experimental inoculum, which was mixed 1:1 with medium containing 1 or N5-Pan analog at twice the desired final concentration in 96-well plates. The final concentration of bacteria in each well was approximately 10^5 CFU/mL in a final volume of 200 µL. The concentration ranges of compounds evaluated in MOPS-glycerol were: 1 (0–312.5 μM), 2 (0–100 μM), 3 (0–500 μM), 4–5 (0–2,000 μM), 6–7 (0–100 μM), and 8–12 (0-2,000 μM). Analogs 1, 6, and 7 were evaluated over a range of 0–4,000 μM in four batches of pooled human urine. The OD600 was monitored for 24 h (MOPS-glycerol) or 16 h (pooled urine) at 37°C with periodic shaking. […]

E. coli = tested on: E. coli; set-up: method as in PMID 29332383; details: cited from earlier work
serum pantetheinases = details: cited from earlier work
[2] = Phase I metabolic stability in mouse liver microsomes; format: in vitro ADME; details: for remaining at 1 h, 1 µM: mouse, liver microsomes, pH 7.4, 1 h, 1 µM compound, 0.2 mg/mL microsomes
Experimental: (§3) Stability studies were conducted in mouse liver microsomes, mouse liver tissue homogenate, and CD1 mouse plasma as previously described with minor modifications ([54][–][56]). Briefly, for Phase I mouse liver microsome stability, reactions were carried out with 200 mM potassium phosphate buffer, pH 7.4, with or without an NADPH-regenerating system (1.3 mM NADPH, 3.3 mM glucose 6-phosphate, 3.3 mM MgCl2, 0.4 U/mL glucose-6-phosphate dehydrogenase, and 50 µM sodium citrate). Reactions, in triplicate, were initiated by the addition of liver microsomes to the incubation mixture (compound final concentration was 1 µM; 0.2 mg/mL microsomes) and incubated at 37°C for the desired incubation time. For liver stability, the tissue homogenate was prepared by washing tissues with diluted 10-fold 0.1 M potassium phosphate buffer and homogenized using a probe sonicator over ice. To evaluate the stability of the drugs over time, each of the crude homogenates was aliquoted to 1 mL and then spiked with a final assay concentration of 10 µM of each drug, followed by incubation in an orbital shaker at 37°C for 1 h (in triplicate). For plasma stability, 1 mL of plasma was spiked with 10 µM of each drug, followed by incubation in an orbital shaker at 37°C for 1 h (in triplicate). Samples from each metabolism study were quenched with 3× volume of acetonitrile containing internal standard (losartan: 0.5 µM) at the desired incubation times. […] Samples were vortex-mixed for 30 s and centrifuged at 10,000 × g for 10 min at 4°C. Compound disappearance over time was monitored using a Dionex ultra-high-performance liquid chromatography system consisting of an analytical pump and an autosampler coupled with Q Exactive Focus orbitrap mass spectrometer (Thermo Fisher Scientific Inc., Waltham MA). […] The mobile phase used was composed of 0.1% formic acid in water and 0.1% formic acid in acetonitrile with gradient elution. The total run time for each analyte was 5 min.
(§4) The mass spectrometer was operated with a HESI ion source in positive ionization mode where compounds were identified in the full scan mode (from m/z 75.00–1125.00) and controlled by the Xcalibur software 4.0.27.13 (Thermo Scientific). Data were acquired using Xcalibur software. Drugs were identified in the full-scan mode (from m/z 75.00 to 1125.00) by comparing t = 0 samples with t = 30 or 60 min samples, and structures were proposed based on the accurate mass information. The percentage of compound remaining for pantothenamides 1, 6, and 7 was determined from the analyte/internal standard (IS) area ratios obtained at t = 30 or 60 min relative to the mean ratios obtained at t = 0 min and calculated using equation 1:
(§5) % Remaining=(Peak area of Analyte/Preak area of ISat t=30 or 60 min/MeanPeak area of Analyte/Peak area of ISat t=0 min)×100

UPEC strain CFT073 [3] = assay: Antimicrobial susceptibility assay, UPEC grown in pooled human urine; format: cell-based, Escherichia coli
Excerpt: as §1, §2

[4] = Stability in mouse liver homogenate; format: in vitro ADME
Experimental: as §3, §4, §5

[5] = Stability in mouse plasma; format: in vitro ADME
Experimental: as §3, §4, §5

UTI = tested on: UTI; set-up: method as in PMID 38376151; details: in vivo ascending UTI prophylaxis model; cited from earlier work

CC(C)(CO)[C@@H](O)C(=O)NCCC(=O)NCc1ccccn1 [compound 8]
MIC (UPEC strain CFT073 [1]): 68 µM | fold increase in MIC (less potent) compared with 1 (UPEC strain CFT073 [1]): ~ 28 fold | MIC MOPS-glycerol (UPEC strain CFT073 [1]): 68 ± 32 µM

CCCCCCCNC(=O)CCNC(=O)[C@H](O)C(C)(C)CO [compound 3]
MIC (UPEC strain CFT073 [1]): 26 µM | fold increase in MIC (less potent) compared with 1 (UPEC strain CFT073 [1]): ~ 10 fold | MIC MOPS-glycerol (UPEC strain CFT073 [1]): 26 ± 5 µM

CCCCCCCN(C)C(=O)CCNC(=O)[C@H](O)C(C)(C)CO [compound 5, N-methyl N7-Pan]
MIC (UPEC strain CFT073 [1]): > 2000 µM | activity against UPEC, highest concentration without activity (UPEC strain CFT073 [1]): similarly inactive | activity against E. coli (E. coli): inactive | pantetheinase resistance (serum pantetheinases): pantetheinase-resistant

CCCCCN(C)C(=O)CCNC(=O)[C@H](O)C(C)(C)CO [compound 4, N-methyl N5-Pan]
MIC (UPEC strain CFT073 [1]): > 2000 µM | activity against UPEC, highest concentration without activity (UPEC strain CFT073 [1]): > 2 mM

CC(C)(CO)[C@@H](O)C(=O)NCCC(=O)NCc1cccnc1 [compound 9]
MIC (UPEC strain CFT073 [1]): 2000 µM

CCCCNC(=O)CCNC(=O)[C@H](O)C(C)(C)CO [compound 2]
MIC (UPEC strain CFT073 [1]): 4 µM | MIC MOPS-glycerol (UPEC strain CFT073 [1]): 4 ± 1 µM

CCCCCC(=O)NCCNC(=O)[C@H](O)C(C)(C)CO [compound 7]
MIC (UPEC strain CFT073 [1]): 12.5 µM | MIC MOPS-glycerol (UPEC strain CFT073 [1]): 12.5 ± 0.00 µM | remaining at 1 h, 1 µM ([2]; with NADPH, read-out: % remaining in mouse liver microsomes, presence of NADPH): 87% | remaining at 1 h, 1 µM ([2]; without NADPH, read-out: % remaining in mouse liver microsomes, absence of NADPH): 87% | stability in mouse liver microsomes ([2]; n = 3): good stability | MIC (UPEC strain CFT073 [3]; Escherichia coli, UPEC CFT073, all urine batches A-D, read-out: MIC across four batches of pooled urine): ≥ 4000 µM | MIC (UPEC strain CFT073 [3]; UPEC CFT073, urine batch A, read-out: MIC in pooled human urine, urine batch A): > 4000 µM | MIC (UPEC strain CFT073 [3]; UPEC CFT073, urine batch B, read-out: MIC in pooled human urine, urine batch B): 4000 µM | stability in the presence of serum pantetheinases (serum pantetheinases): stable | % remaining in mouse liver homogenate ([4]; 1 h, 10% wt/vol homogenate, 10 µM compound, 37°C): no degradation | stability in mouse liver homogenate ([4]; n = 3): good stability | remaining at 1 h, 10 µM ([5]; CD1, mouse, plasma, 1 h, 10 µM compound, 37°C): 93% | stability in mouse plasma ([5]; n = 3): good stability

CCCCOP(=O)(O)C(C)=O [BAP, butylacetylphosphonate]
protection of mice against UTI (UTI): partially protects

CC(C)(CO)[C@@H](O)C(=O)NCCC(=O)NCc1ccncc1 [compound 10]
MIC (UPEC strain CFT073 [1]): > 2000 µM

CC(NC(=O)CCNC(=O)[C@H](O)C(C)(C)CO)c1cccnc1 (some centres unmarked) [compound 11]
MIC (UPEC strain CFT073 [1]): > 2000 µM

CN(Cc1cccnc1)C(=O)CCNC(=O)[C@H](O)C(C)(C)CO [compound 12]
MIC (UPEC strain CFT073 [1]): > 2000 µM
